{"source": "patent US12325708B2", "about": "“Adenosine 2 receptor antagonists” (Nektar Therapeutics, priority 2019, dated 2025)", "key": {"A2A receptor": {"target": "T1, A2A receptor (Homo sapiens, UniProt P29274)", "T1 construct": "purchased", "T1 sequence (P29274 whole entry)": "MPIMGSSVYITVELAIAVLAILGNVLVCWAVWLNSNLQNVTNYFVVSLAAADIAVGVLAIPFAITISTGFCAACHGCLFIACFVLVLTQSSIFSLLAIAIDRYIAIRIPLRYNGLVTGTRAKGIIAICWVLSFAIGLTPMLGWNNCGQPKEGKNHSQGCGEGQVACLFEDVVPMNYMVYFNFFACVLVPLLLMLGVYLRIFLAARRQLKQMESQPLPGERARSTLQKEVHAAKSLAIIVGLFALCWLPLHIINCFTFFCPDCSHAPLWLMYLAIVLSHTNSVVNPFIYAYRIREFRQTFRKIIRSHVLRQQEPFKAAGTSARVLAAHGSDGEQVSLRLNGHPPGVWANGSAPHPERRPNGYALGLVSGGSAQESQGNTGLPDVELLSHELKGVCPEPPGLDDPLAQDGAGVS", "experiment": "Radioligand receptor binding assay, A2A receptor", "conditions": "cell membranes overexpressing A2A receptor, read-out: Potency Ki A2A", "method_in_brief": "(§1)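 Membranes from cell lines overexpressing human A2A, A1 or A3 receptors were incubated 60 min at room temperature with the receptor-appropriate [3H] tracer. After filtration and washing in 50 mM Tris HCl pH 7.5, bound label was counted by scintillation. IC50 came from nonlinear regression and Ki from the Cheng-Prusoff equation.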"}, "[1]": {"experiment": "Brain-to-plasma ratio (B/P) after administration", "format": "in vivo, Sprague-Dawley rats", "conditions": "Sprague-Dawley, rat, oral, 2.5 mg/kg; Table 6; brain-to-plasma ratio at 1 h", "method_in_brief": "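Plasma pharmacokinetic parameters determined after oral (PO) administration; brain-to-plasma concentration ratio (B/P) used as the brain penetration measure.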"}, "A3 receptor": {"target": "T2, A3 receptor (Homo sapiens, UniProt P0DMS8)", "T2 construct": "purchased", "T2 sequence (P0DMS8 1-318)": "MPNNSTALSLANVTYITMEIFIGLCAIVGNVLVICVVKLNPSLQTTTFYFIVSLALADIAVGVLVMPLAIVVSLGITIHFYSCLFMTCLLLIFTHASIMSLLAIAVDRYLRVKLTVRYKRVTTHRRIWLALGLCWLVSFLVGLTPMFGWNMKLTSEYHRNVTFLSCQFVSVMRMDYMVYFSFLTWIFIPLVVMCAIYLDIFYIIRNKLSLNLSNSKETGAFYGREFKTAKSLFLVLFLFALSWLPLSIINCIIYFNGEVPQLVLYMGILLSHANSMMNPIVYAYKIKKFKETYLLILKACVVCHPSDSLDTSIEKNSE", "experiment": "Radioligand receptor binding assay, A3 receptor", "conditions": "cell membranes overexpressing A3 receptor, read-out: Potency Ki A3", "experimental": "Using conventional receptor binding assay techniques, Compounds 1-24 were assayed to determine binding activity at the A2A, A1, and A3 receptors with the results shown in Table 7.\nReceptor binding affinity of Compounds 1-24 was measured using radioligand binding assays using commercially obtained cell membranes prepared from cell lines overexpressing the A2A, A1, or A3 receptors. Briefly, cell membrane preparations from cells expressing the specific receptor were mixed with the appropriate [^3H]-labeled tracer for the specific receptor and the test compound or a known inhibitor of receptor-ligand binding. Following 60 min incubation at room temperature to allow receptor-ligand complex formation, the complexes were collected by filtration, washed with 50 mM Tris HCl (pH 7.5) to remove radioligand that was not receptor-bound, and the remaining radioactivity determined by liquid scintillation counting. Specific radioligand binding was calculated for each test compound concentration and IC50 values were determined by non-linear, regression analysis. Inhibition constants (Ki) were calculated using the equation of Cheng and Prusoff using the observed IC50 of the tested compound, the concentration of radioligand employed in the assay and the experimentally determined values for the Kd of the ligand."}, "[2]": {"experiment": "Plasma pharmacokinetic parameters following intravenous (IV) or oral (PO) administration in rats", "format": "in vivo, Sprague-Dawley rats", "conditions": "male, Sprague-Dawley, rat, plasma, Table 6", "method_in_brief": "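Fasted male Sprague-Dawley rats (230-250 g, n=2/group), dosed 0.5 mg/kg IV (jugular) or 2.5 mg/kg PO gavage in water. Plasma sampled 2–1440 min, analyzed by LC-MS/MS; non-compartmental analysis with nominal doses/times gave AUC, Cmax, Tmax, CL, Vss, MRTlast, F.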"}, "A1 receptor": {"target": "T3, A1 receptor (Homo sapiens, UniProt P30542)", "T3 construct": "purchased", "T3 sequence (P30542 1-326)": "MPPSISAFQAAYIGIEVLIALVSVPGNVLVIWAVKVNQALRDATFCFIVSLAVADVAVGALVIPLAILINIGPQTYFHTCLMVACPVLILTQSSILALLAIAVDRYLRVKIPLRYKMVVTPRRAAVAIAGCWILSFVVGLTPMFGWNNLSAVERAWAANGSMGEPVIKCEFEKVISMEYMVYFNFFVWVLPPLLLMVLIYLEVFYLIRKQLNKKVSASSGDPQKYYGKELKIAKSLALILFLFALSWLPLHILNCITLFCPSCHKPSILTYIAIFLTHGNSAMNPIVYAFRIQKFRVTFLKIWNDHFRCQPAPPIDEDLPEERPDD", "experiment": "Radioligand receptor binding assay, A1 receptor", "conditions": "cell membranes overexpressing A1 receptor, read-out: Potency Ki A1", "method_in_brief": "as §1"}}, "data": [{"smiles": "[2H]C([2H])([2H])OC([2H])([2H])C([2H])([2H])Oc1ccc(N2CCN(C([2H])([2H])C([2H])([2H])N(c3cc4nc(-c5ncco5)nn4c(N)n3)C([2H])([2H])[2H])CC2)cc1", "note": "[Compound 16, N^7-(^2H3)methyl-N^7-[2-{4-[4-({2-[(^2H3)methyloxy](^2H4)ethyl}oxy)phenyl]piperazin-1-yl}(^2H4)ethyl]-2-(1,3-oxazol-2-yl)[1,2,4]triazolo[1,5-c]pyrimidine-5,7-diamine]", "values": [{"measurement": "Ki", "setting": "A2A receptor", "value": 0.004, "unit": "µM"}, {"measurement": "Kp at 1 h", "setting": "[1]", "value": 0.06}, {"measurement": "Ki", "setting": "A3 receptor", "value": "> 10", "unit": "µM"}, {"measurement": "AUC", "setting": "[2]; 2.5 mg/kg, oral (PO) administration essentially as described in Example 28", "value": 1200, "unit": "ng·h/mL"}, {"measurement": "clearance", "setting": "[2]; intravenous, 0.5 mg/kg, essentially as described in Example 28", "value": 20, "unit": "mL/min/kg"}, {"measurement": "bioavailability", "setting": "[2]; po, 2.5 mg/kg, oral (PO) administration essentially as described in Example 28", "value": 58, "unit": "%"}, {"measurement": "Ki", "setting": "A1 receptor", "value": "> 100", "unit": "µM"}]}]}
